Experimental data as given in patent US8101180B2, “Anti-IGF-IR and/or anti-insulin/IGF-I hybrid receptors antibodies and uses thereof” (Pierre Fabre Medicament, priority 2002, dated 2012).
Entries after “also recorded” stand apart in the source; their conditions may differ.

Experiments:
A549 tumor = experiment: A549 non-small cell lung tumor subcutaneous xenograft; format: in vivo, nude mice; details: s.c. xenograft; for inhibition of A549 tumor growth in vivo, murine versus humanized antibody: 125 μg/dose twice per week i.p.
Procedure: Navelbine is a chemotherapy compound indicated in non-small cell cancer of the lung and in metastatic cancer of the breast. […] For this study, 5·10^6 A549 cells were grafted subcutaneously on the right flank of the mouse. Five days after the cell graft, the tumors are measurable and the treatments with MAb and/or navelbine are commenced. The MAb dose is always 250 μg/dose/mouse, twice per week, intra-peritoneally. Concerning navelbine, it will be administered at the maximum dose tolerated by the mouse or 10 mg/kg, intraperitoneally. For this treatment three injections will be carried out at intervals of 7 days. During the coadministrations, the two products are mixed before injection.
For this study, nude mice are grafted s.c. with 5·10^6 A549 cells. Five days after the cell graft, the tumors are measured and a homogeneous batch of mice in terms of tumor volume is formed. Starting from this batch, groups of 6 mice are generated at random.
To do this, 5·10^6 A549 cells were implanted subcutaneously in nude mice. Five days after this implantation, the tumors were measured and groups of 6 mice were formed. […] This granule is essential to the establishment of any E2-dependent human tumor in this animal species.
These conjugates are administered according to the same modes as the groups given the chemotherapy compounds alone; • the animals of the control batch are given injections of PBS, administered according to the same frequency.
The weight of the mice and the tumor volume are evaluated twice a week. The tumor volumes are calculated according to the formula: ½ (length·width·height).

IRS-1 = experiment: Tyrosine phosphorylation of IRS-1 in IGF-I-stimulated MCF7 cells; format: cell-based, human; details: antibodies 10 μg/ml, IGF-I 50 ng/ml
Procedure: MCF7 cells are cultured for 24 hours at 5·10^4 cells/cm^2 (75 cm^2 plates, COSTAR) in 20 ml of RPMI without phenol red, mixed with 5 mM of glutamine, penicillin/streptomycin (respectively 100 U/100 μg/ml) and 10% of fetal calf serum. After three washes in PBS, the cells were incubated for 12 hours in medium (RPMI) without phenol red, devoid of fetal calf serum and mixed with 5 mM of glutamine, penicillin/streptomycin, bovine serum albumin at 0.5 μg/ml (Sigma A-8022) and transferrin at 5 μg/ml (Sigma T8158).
For activation, the cells were first incubated at 37° C. for 2 minutes with blocking antibodies (10 μg/ml) and then IGF-I (Sigma I3769, 50 ng/ml) was added for two additional minutes. The reaction was stopped by aspiration of the incubation medium and the plates were laid on ice. […] The solutions were centrifuged at 12,000 rpm for ten minutes (4° C.) and the protein concentrations of the supernatants were quantified by BCA.
500 μg of proteins of the cell lysate were mixed with the anti-IGF-IR (Santa cruz Ref.: sc-713) for immunoprecipitation and incubated on the shaker at 4° C. for 1.5 hours. […] The supernatants were analyzed by electrophoresis on polyacrylamide SDS gel (8% Novex EC6015). […]

MCF-7 cells = experiment: Apoptosis of MCF-7 cells (Annexin V-FITC/DAPI flow cytometry); format: cell-based, human; details: antibody 10 μg/ml + doxorubicin 2 μg/ml, 24 hours
Procedure: As indicated above, IGF-IR is capable of conferring protection against apoptosis when it is overexpressed on the surface of cells. […] In these experiments, the MCF-7 cells are inoculated at 2·10^4/cm^2 in Petri dishes and cultured for 24 h in RPMI without phenol red supplemented with 10% of fetal calf serum (FCS). The cells are then washed twice with PBS and put back into culture in medium with 0% FCS. They are allowed an adaptation time of 10 minutes at 37° C. before the addition of the antibodies at 10 μg/ml. After an extra 10 minutes at 37° C., recombinant IGF-I (Sigma) is added to the culture medium to a final concentration of 50 ng/ml. The cells are left at 37° C. again for one hour in order to allow the attachment of the antibodies and of the IGF-I. Finally, the doxorubicin (Sigma) is added to the culture medium at 2 μg/ml and the cells are incubated for 24 hours at 37° C.
The experiments have likewise been conducted with navelbine at a concentration of 10 μg/ml.
The analysis of the cell viability is carried out by flow cytometric analysis after labeling with the annexin V-FITC (20 minutes, 4° C.) and DAPI (2 μg/ml). The percentage of dead cells considered is the labeled population Annexin+/DAPI+. The antibody 5C2 is used as a control isotype.

Hybrid-R = experiment: Immunoprecipitation of Hybrid-R from R+/IR-A and R+/IR-B cell lysates; format: binding
From the text: The used cells for this study are listed thereafter: • R+: R− fibroblasts stably transfected with the IGF-I receptor (IGF-IR) cDNA • R−/IR-A: R− fibroblasts stably transfected with the insulin receptor isoform A (IR-A) cDNA • R−/IR-B:R− fibroblasts stably transfected with the insulin receptor isoform B (IR-B) cDNA • R+/IR-A: R− fibroblasts stably co-transfected with the IGF-I and the insulin receptor isoform A cDNA and, therefore, expressing hybrid receptors A (Hybrid-RsA) • R+/IR-B: R− fibroblasts stably co-transfected with the IGF-I and the insulin receptor isoform B cDNA and, therefore, expressing hybrid receptors B (Hybrid-RsB)
For the obtention of cellular lysat, cells were solubilized in RIPA buffer and 4 mg protein used for immunoprecipitation.
Following immunoprecipitation, the pellet was resuspended in 2× sample buffer and subjected to SDS-PAGE (7.5% polyacrylamide).
Filters were blotted as follows: Filters containing R+ lysates (and therefore only IGF-IR) with an anti-IGF-IR β-subunit (Santa Cruz). Filters containing lysates from all the remaining cells with an antibody anti-IR β-subunit (Santa Cruz).

Chain of Hybrid-R (P08069 31-736 limits assumed): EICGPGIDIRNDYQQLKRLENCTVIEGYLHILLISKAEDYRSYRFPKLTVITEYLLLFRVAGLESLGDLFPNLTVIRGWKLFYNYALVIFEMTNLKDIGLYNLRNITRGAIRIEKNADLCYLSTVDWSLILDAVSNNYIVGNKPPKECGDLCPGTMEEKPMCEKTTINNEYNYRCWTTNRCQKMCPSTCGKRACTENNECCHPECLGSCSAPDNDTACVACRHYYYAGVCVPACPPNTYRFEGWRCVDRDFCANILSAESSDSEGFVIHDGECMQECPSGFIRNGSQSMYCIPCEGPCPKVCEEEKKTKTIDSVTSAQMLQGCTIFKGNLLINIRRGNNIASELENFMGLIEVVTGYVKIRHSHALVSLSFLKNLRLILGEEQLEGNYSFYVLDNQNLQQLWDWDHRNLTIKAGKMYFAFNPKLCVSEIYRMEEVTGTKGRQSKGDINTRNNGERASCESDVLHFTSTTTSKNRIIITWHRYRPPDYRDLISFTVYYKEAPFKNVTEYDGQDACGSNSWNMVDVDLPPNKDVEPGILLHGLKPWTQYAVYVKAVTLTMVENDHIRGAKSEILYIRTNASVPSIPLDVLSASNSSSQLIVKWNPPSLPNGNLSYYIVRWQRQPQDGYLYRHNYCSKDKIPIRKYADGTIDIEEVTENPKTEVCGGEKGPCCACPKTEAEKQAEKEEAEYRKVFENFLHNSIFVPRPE
Chain of Hybrid-R (P08069 741-1367 limits assumed): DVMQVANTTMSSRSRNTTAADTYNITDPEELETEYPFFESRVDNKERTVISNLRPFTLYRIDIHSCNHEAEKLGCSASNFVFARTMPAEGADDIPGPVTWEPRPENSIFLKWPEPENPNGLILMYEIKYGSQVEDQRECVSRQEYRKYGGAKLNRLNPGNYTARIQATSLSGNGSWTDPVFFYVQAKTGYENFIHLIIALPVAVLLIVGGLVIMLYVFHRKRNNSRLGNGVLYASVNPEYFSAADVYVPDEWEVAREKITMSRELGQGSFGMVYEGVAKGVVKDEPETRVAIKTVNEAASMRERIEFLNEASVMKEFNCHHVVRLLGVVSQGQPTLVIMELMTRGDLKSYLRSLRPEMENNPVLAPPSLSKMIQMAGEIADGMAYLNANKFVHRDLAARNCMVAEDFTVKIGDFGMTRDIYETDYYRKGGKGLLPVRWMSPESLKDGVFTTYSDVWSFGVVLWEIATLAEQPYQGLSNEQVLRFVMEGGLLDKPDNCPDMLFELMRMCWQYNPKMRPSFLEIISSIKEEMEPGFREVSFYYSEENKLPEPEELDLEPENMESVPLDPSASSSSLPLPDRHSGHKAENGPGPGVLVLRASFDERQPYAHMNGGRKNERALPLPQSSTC

Row | Substance | inhibition of A549 tumor growth in vivo, murine versus humanized antibody (A549 tumor) | inhibition of A549 tumor growth in vivo (A549 tumor; 250 μg/dose/mouse twice per week i.p.) | inhibition of tyrosine phosphorylation of IRS-1 (IRS-1) | potentiation of doxorubicin-induced cell death (MCF-7 cells) | recognition of Hybrid-R by immunoprecipitation (Hybrid-R)
1 | 7C10: murine monoclonal anti-IGF-IR IgG1 secreted by the hybridoma deposited at the CNCM under the number I-2717 | significant inhibition of the tumor growth | significant activity; also recorded: as active as the conventional treatment with navelbine; also recorded: significant decrease in the tumor growth | inhibit the phosphorylation | significant increase in cell death | recognizes Hybrid-R
2 | h7C10: humanized 7C10 anti-IGF-IR antibody, isotype IgG1 (humanized 1 written 7H2HM) | exactly the same intensity as that observed with its murine counterpart |  | inhibit the phosphorylation | same effect | recognizes Hybrid-R
